Structures are written as SMILES.

Results on 3 compounds are retold here after US20070269420A1, “Compounds, Compositions and Methods for Treatment and Prophylaxis of Hepatitis C Viral Infections and Associated Diseases” (priority 2003, published 2007).

The target of one series is T1, HCV NS4B (Hepatitis C virus genotype 1b, UniProt Q9WMX2).
T1 construct: NS4B was cloned, expressed and purified to establish an assay; made in house
As to the kind of experiment: NS4B binding assay (quenching of intrinsic protein fluorescence). The following applies: fluorescent binding assay. An excerpt:
NS4B was cloned, expressed and purified to establish an assay, which takes advantage of the intrinsic fluorescent properties of proteins and identifies compounds, which inhibit by a NS4B specific mechanism. This protein is necessary for viral replication. It is thought to act as an anchor securing the replication complex to cellular membranes, where replication is known to occur. Several other functions necessary for viral replication have also ascribed to NS4B.

Series [1] deals with HCV replicon (BB7 sequence) in Huh-7-Clone A cells. As to the kind of experiment: HCV replicon NS5A ELISA, inhibition of viral RNA replication. The following applies: for activity against HCV-replicon: measured by Elisa and quantitative RT-PCR, Clone-A cells. It is filed as cell-based, hepatitis C virus. Here is the method:
Antiviral activity of representative compounds of the invention was evaluated in a human liver-derived cell line (Huh-7-Clone A) containing the HCV replicon (BB7 sequence) (See Lohmann et al. Science. 1999, 285:110-3; Blight K J et al., Science. 2000, 290:1972-4; Pietschmann, T. et al., J. Virol. 2001, 73:1252-1264; and Lohmann, V. et al., J. Virol. 2001, 75:1437-1449). The HCV replicon is a subgenomic viral RNA that expresses the HCV proteins required for its own replication. These proteins include non-structural proteins NS3, NS4A, NS4B, NS5A and NS5B. The replicon also contains a foreign gene encoding a drug-selectable marker (neomycin phosphotransferase) to allow for G418 (neomycin) selection of cells that contain the replicon.
An ELISA (enzyme-linked immunosorbant assay) was used to determine the effect of compounds within the scope of the invention on the amount of HCV NS5A protein produced after a 72-hour incubation of the replicon-containing cells in the presence of varying concentrations of compound. Huh7-Clone A cells were seeded in 96-well plates at a subconfluent density (9000 cells/well) in medium containing 2% FBS and incubated for 4 hours to allow attachment to occur. HCV-086 (solubilized with 100% dimethylsulfoxide [DMSO]) was added to wells using an 8-point, 3-fold serial dilution series, with a final DMSO concentration of 1% in a total volume of 200 μL. Plates were incubated for 72 hours at 37° C. and 5% CO2. Under these conditions, the cells are approximately 25% confluent at the time of seeding and 80-90% confluent on day 3. COSTAR® 96-well cell culture plates were used but other known cell culture plates may be used. After incubation, media is removed from wells and the cells are fixed to the assay plate using 0.05% glutaraldehyde (Fisher # 02957-4). The glutaraldehyde is then washed off using phosphate-buffered saline (PBS) following a 1 hour incubation and cells are blocked for non-specific antibody binding using for example SUPERBLOCK® reagent (blocking buffer) in PBS. The blocking agent is rinsed from the cells with PBS after 1 hour at 37° C., and HCV NS5A monoclonal antibody (Virostat # 1873) is added to each well containing compound. Primary antibody is incubated for 1 hour at 37° C. and rinsed 3 times with PBS containing 0.02% TWEEN-20™ before addition of Horseradish Peroxidase (HRP) conjugated secondary antibody. HRP is incubated for 1 hour at 37° C. and rinsed several times, first with PBS/TWEEN-20™ followed by PBS alone. To quantify peroxidase activity, 3,3′,5,5′-tetramethylbenzidine (TMB) substrate is added to the plate and after 30 minutes, the plates are read in an ELISA plate reader at an OD of 650 nm.
Compound dose response was measured in an 8-point dose curve diluted serially to determine the inhibitory concentration at 50% (EC50 value). […] Ranges of 50% effective concentrations (EC50s) for the representative compounds within the scope of this invention are listed in Tables 1-8. Preferred compounds have 50% effective concentrations at about 30 μM or less, more preferred compounds have 50% effective concentrations at about 5 μM or less, and most preferred compounds have 50% effective concentrations at about 0.5 μM or less.
On the technique in general: Replicon systems follow genome replication, usually without infectious particles.

The subject of series [2] is Clone-A cells. As to the kind of experiment: Crystal violet qualitative cell proliferation assay, 5 day incubation, Clone-A. The class given is cell-based, human. The note with it: crystal violet staining. How it is done: (§1) The cellular toxicity of Compound A at different concentrations was assessed on different cell lines following crystal violet staining (qualitative cell proliferation assay) after 5 day incubation. Huh7 cells are human hepatoma cells. A genotype 1b replicon-containing cell line derived from Huh7 cells (Clone-A) was obtained from Apath, LLC. Clone-A cells were selected under Compound B drug pressure and a resistant clone was selected (559^R) which contained mutations in NS4B gene.

The next series deals with Huh-7 cells. The class given is cell-based. The note with it: human, 5 day. How it is done: as §1
A further series deals with 559^R cells. As to the kind of experiment: Crystal violet qualitative cell proliferation assay, 5 day incubation, resistant clone. The class given is cell-based, human. The following applies: crystal violet staining. Here is the method:
as §1

Series [3] has as its system Clone-A cells. As to the kind of experiment: Genomic DNA fragmentation by agarose gel electrophoresis. It is filed as cell-based, human. The note with it: Huh7, Clone-A and 559^R treated. How it is done:
DNA fragmentation is a measure of apoptotic cell death. Huh7, Clone-A and 559^R were treated with Compound B and genomic DNA fragmentation determined by agarose gel electrophoresis.

Series [4] in a line: Crystal Violet cellular toxicity in wild type replicon cells. It is filed as cell-based. The note with it: human. Here is the method:
(§2) Huh-7 cells (harboring no replicon) and wild type replicon cells were seeded onto a 96 well plate. All cells were subjected to increasing amounts of a representative compound of the invention, as described in the replicon ELISA protocol. In order to assess the cellular toxicity of a compound of Formula I in both Huh-7 cells (harboring no replicon) and wild type replicon, cells were stained with Crystal Violet (a nonspecific protein stain) after 72 hours. The […] values for cells lacking replicon were generally >100.0 μM in parental Huh-7 cells for each compound. […] In this case the cells' natural defenses are strengthened and apoptosis, a natural defense to viral infection, occurs. The Huh-7 cell line is the parental cell line harboring no HCV subgenomic replicon. In this cell line, the toxicity is reduced due to the fact that there is no NS4B for the compound to bind. If the cellular toxicity in cells comprising HCV replicons and in the parental Huh-7 cell line (no replicon) are the same, then they are effective in inhibiting HCV replication rather than the modulation of apoptosis.
(§3) During drug screening efforts to identify compounds having binding affinity for HCV NS4B, the triazinoindole class of compounds of Formula VII was identified. […] However a cellular toxicity (CC50) of 20 μM was also found. […]

Series [5] in a line: Crystal Violet cellular toxicity in parental cells harboring no replicon. The note with it: human, parental Huh-7 cells (harboring no replicon), 72-hour period, parental Huh-7 cells lacking replicon. It is filed as cell-based. How it is done:
as §2, §3

The subject of series [6] is genotype 1b (BB7 isolate) replicon-containing cells. As to the kind of experiment: Selection of replicon variants under test compound. The following applies: cell line passaged in the presence of 5 μM test compound for 7 passages. The class given is cell-based, hepatitis C virus. Here is the method: To select for replicon variants, genotype 1b (BB7 isolate) replicon-containing cells were cultured and in the presence of 5 μM of the test compound for 7 passages. As a control, genotype 1b (BB7 isolate) replicon-containing cells were passaged in parallel, without the test compound. […] Total cellular RNA was extracted from both cell lines using Trizol Reagent (Invitrogen #15596-026) according to the manufacturer's protocol. NS5B cDNA was generated in a two-step RT-PCR reaction. PCR products were ligated into pPCR-Script Amp SK (+) (Stratagene #211188), transformed into E. coli, and sequenced.
The changes are as follows: K52R, G120V and A210S.

As for `Cc1nn(-c2nnc3c4ccccc4n(C)c3n2)c(C)c1-c1ccccc1` [Compound A, 2-(3,5-dimethyl-4-phenyl-pyrazol-1-yl)-9-methyl-9H-1,3,4,9-tetraaza-fluorene], the “binding activity towards purified HCV NS4B” value at HCV NS4B is listed as “demonstrated binding activity”. For the same compound, in [1], the “activity against HCV-replicon” value is recorded as “demonstrated activity”. Moreover, the cellular toxicity in the series on Clone-A cells [2] is approximately 3 µM; in the series with Huh-7 cells, approximately 30 µM; in the series with 559^R cells it was approximately 30 µM.
In the case of `CCCCc1c(C)nn(-c2nnc3c4ccccc4n(CC)c3n2)c1C` [Compound B, 2-(4-butyl-3,5-dimethyl-pyrazol-1-yl)-9-ethyl-9H-1,3,4,9-tetraaza-fluorene], the “binding activity towards purified HCV NS4B” value on HCV NS4B is listed as “demonstrated binding activity”. The “activity against HCV-replicon” value in series [1] is recorded as “demonstrated activity”. Moreover, the “genomic DNA fragmentation (apoptose)” value with Clone-A cells [3] was “cause DNA fragmentation (apoptose) in Clone-A cells only”.
The term EC50 denotes the concentration that produces a half-maximal response. The CC50 is the concentration that lowers cell viability or growth by half. Take `CCCCc1c(C)nn(-c2nnc3c4ccccc4n(CC)c3n2)c1C` [Example 1]: in [1] (Hepatitis C virus, measured using the HCV subgenomic replicon system, read-out: EC50), the EC50 was found to be 1.2 µM. This compound also gave a CC50 in series [4] (HCV subgenomic replicon cells, found alongside EC50 in the HCV subgenomic replicon system) of 20 µM. Besides, the CC50 at 72 h in series [4] (Crystal Violet, 72-hour period, cells containing wild type replicons) is 20 µM; in [5], more than 100 µM. The “reduced susceptibility to the compound” value in [6] is reported as “over 10 fold”.
